“And” between values parts separate entries of the source, which are not always exact repeats. Equal entries are not always repeated. Toxic doses and inconclusive results are not listed. No stated cut-off is given here; in the data, active means T/C of 150% or more; inactive means T/C below 125%.
System: L1210 leukemia ip in BDF1 mice, survival T/C
Experiment: NCI In Vivo Anticancer Drug Screen. Data for tumor model L1210 Leukemia (intraperitoneal) in B6D2F1 (BDF1) mice
Conditions: endpoint: mean survival time, higher = longer survival
In short: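 Mice bearing the transplanted tumor received compound or vehicle. Survival of the treated group was divided by that of the vehicle-treated control group to give the ratio.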

[1] = dose: 100.0 mg/kg/injection, schedule: Q04DX002 (ip), vehicle: Klucel (hydroxypropylcellulose) (HPC)
[2] = dose: 200.0 mg/kg/injection, schedule: Q04DX002 (ip), vehicle: Klucel (hydroxypropylcellulose) (HPC)
[3] = dose: 400.0 mg/kg/injection, schedule: Q04DX002 (ip), vehicle: Klucel (hydroxypropylcellulose) (HPC)
[4] = dose: 100.0 mg/kg/injection, schedule: Q01DX001 (ip), vehicle: Klucel (hydroxypropylcellulose) (HPC)
[5] = dose: 100.0 mg/kg/injection, schedule: Q04DX002 (ip), vehicle: saline with Tween-80
[6] = dose: 200.0 mg/kg/injection, schedule: Q04DX002 (ip), vehicle: saline with Tween-80
[7] = dose: 400.0 mg/kg/injection, schedule: Q04DX002 (ip), vehicle: saline with Tween-80
[8] = dose: 50.0 mg/kg/injection, schedule: Q01DX009 (ip), vehicle: Klucel (hydroxypropylcellulose) (HPC)
[9] = dose: 100.0 mg/kg/injection, schedule: Q01DX009 (ip), vehicle: Klucel (hydroxypropylcellulose) (HPC)
[10] = dose: 100.0 mg/kg/injection, schedule: Q04DX003 (ip), vehicle: saline with Tween-80
[11] = dose: 200.0 mg/kg/injection, schedule: Q04DX003 (ip), vehicle: saline with Tween-80
[12] = dose: 400.0 mg/kg/injection, schedule: Q04DX003 (ip), vehicle: saline with Tween-80

Measured: T/C

C[C@]12CCC(=O)C=C1CC[C@H]1[C@@H]3CC[C@](O)(C(=O)CO)[C@@]3(C)C[C@H](O)[C@@]12F
inactive: dose: 50.0 mg/kg/injection, schedule: Q01DX001 (sc), vehicle: steriod suspending solution 103 % of control | dose: 100.0 mg/kg/injection, schedule: Q01DX001 (sc), vehicle: steriod suspending solution 100 % of control | dose: 200.0 mg/kg/injection, schedule: Q01DX001 (sc), vehicle: steriod suspending solution 105 % of control | dose: 400.0 mg/kg/injection, schedule: Q01DX001 (sc), vehicle: steriod suspending solution 105 % of control

COC1OC2COc3ccccc3OC2C2C1N2C(c1ccccc1)N1C2C(OC)OC3COc4ccccc4OC3C21 (stereo not drawn)
inactive: [1] 93 % of control | [2] 100 % of control | [3] 107 % of control

C=CCSCCC=O
inactive: dose: 25.0 mg/kg/injection, schedule: Q01DX001 (ip), vehicle: Klucel (hydroxypropylcellulose) (HPC) 100 % of control | dose: 50.0 mg/kg/injection, schedule: Q01DX001 (ip), vehicle: Klucel (hydroxypropylcellulose) (HPC) 102 % of control | [4] 102 % of control

CN(C)/N=N/c1ccn[nH]1
inactive: dose: 50.0 mg/kg/injection, schedule: Q01DX005 (ip), vehicle: saline 105 % of control

O=C(O)CC1CC2CCC1C2 (stereo not drawn)
inactive: [5] 87 % of control | [6] 97 % of control | [7] 87 % of control

O=C(NNc1c(Cl)cc(Cl)cc1Cl)C(O)C(O)C(O)C(O)CO (stereo not drawn)
inactive: dose: 100.0 mg/kg/injection, schedule: Q04DX003 (ip), vehicle: saline 91 % of control | dose: 200.0 mg/kg/injection, schedule: Q04DX003 (ip), vehicle: saline 87 % of control | dose: 400.0 mg/kg/injection, schedule: Q04DX003 (ip), vehicle: saline 87 % of control

COn1c(/C=N/NC(N)=S)ccc1CN1C(=O)c2ccccc2C1=O
inactive: [4] 100 % of control | dose: 200.0 mg/kg/injection, schedule: Q01DX001 (ip), vehicle: Klucel (hydroxypropylcellulose) (HPC) 97 % of control | dose: 400.0 mg/kg/injection, schedule: Q01DX001 (ip), vehicle: Klucel (hydroxypropylcellulose) (HPC) 93 % of control

CCN(CC)CCNc1ccc(C)c2sc3ccccc3c(=O)c12 (tested in a mixture with another compound)
inactive: dose: 6.0 mg/kg/injection, schedule: Q01DX009 (ip), vehicle: carboxymethylcellulose (CMC) 102 % of control | dose: 12.0 mg/kg/injection, schedule: Q01DX009 (ip), vehicle: carboxymethylcellulose (CMC) 98 % of control | dose: 17.0 mg/kg/injection, schedule: Q01DX015 (ip), vehicle: saline 102 % of control | dose: 25.0 mg/kg/injection, schedule: Q01DX009 (ip), vehicle: carboxymethylcellulose (CMC) 109 % of control | dose: 26.0 mg/kg/injection, schedule: Q01DX015 (ip), vehicle: carboxymethylcellulose (CMC) 108 % of control | dose: 26.0 mg/kg/injection, schedule: Q01DX015 (ip), vehicle: saline 101 % of control | dose: 35.0 mg/kg/injection, schedule: Q01DX009 (ip), vehicle: saline 102 % of control | dose: 39.0 mg/kg/injection, schedule: Q01DX015 (ip), vehicle: carboxymethylcellulose (CMC) 110 % of control | dose: 40.0 mg/kg/injection, schedule: Q01DX015 (ip), vehicle: saline 113 % of control and 118 % of control | dose: 59.0 mg/kg/injection, schedule: Q01DX015 (ip), vehicle: carboxymethylcellulose (CMC) 116 % of control | dose: 75.0 mg/kg/injection, schedule: Q01DX009 (ip), vehicle: saline 104 % of control | dose: 133.0 mg/kg/injection, schedule: Q01DX009 (ip), vehicle: carboxymethylcellulose (CMC) 123 % of control | dose: 175.0 mg/kg/injection, schedule: Q01DX001 (ip), vehicle: saline 100 % of control | dose: 200.0 mg/kg/injection, schedule: Q01DX015 (ip), vehicle: saline 112 % of control | dose: 265.0 mg/kg/injection, schedule: Q01DX001 (ip), vehicle: saline 105 % of control | dose: 300.0 mg/kg/injection, schedule: Q01DX015 (ip), vehicle: carboxymethylcellulose (CMC) 91 % of control | dose: 400.0 mg/kg/injection, schedule: Q01DX001 (ip), vehicle: saline 122 % of control
active: dose: 89.0 mg/kg/injection, schedule: Q01DX015 (ip), vehicle: saline 202 % of control

FC1(F)SC2CC/C=C\CCC2C1(F)F (stereo not drawn)
inactive: dose: 0.75 mg/kg/injection, schedule: Q04DX003 (ip), vehicle: Klucel (hydroxypropylcellulose) (HPC) 90 % of control | dose: 1.5 mg/kg/injection, schedule: Q01DX009 (ip), vehicle: Klucel (hydroxypropylcellulose) (HPC) 96 % of control | dose: 1.5 mg/kg/injection, schedule: Q04DX003 (ip), vehicle: Klucel (hydroxypropylcellulose) (HPC) 98 % of control | dose: 3.0 mg/kg/injection, schedule: Q01DX009 (ip), vehicle: Klucel (hydroxypropylcellulose) (HPC) 102 % of control | dose: 3.0 mg/kg/injection, schedule: Q04DX003 (ip), vehicle: Klucel (hydroxypropylcellulose) (HPC) 102 % of control | dose: 3.12 mg/kg/injection, schedule: Q04DX003 (ip), vehicle: Klucel (hydroxypropylcellulose) (HPC) 86 % of control | dose: 12.0 mg/kg/injection, schedule: Q04DX003 (ip), vehicle: Klucel (hydroxypropylcellulose) (HPC) 88 % of control

CCOC(=O)c1ccc(N=C2C(C)(C)C(=Nc3ccc(C(=O)OCC)cc3)C2(C)C)cc1
inactive: [5] 93 % of control | [6] 87 % of control | [7] 87 % of control

O=C(c1ccc(Cl)cc1)c1cccc[n+]1Cc1ccccc1
inactive: dose: 12.5 mg/kg/injection, schedule: Q04DX003 (ip), vehicle: Klucel (hydroxypropylcellulose) (HPC) 102 % of control | dose: 25.0 mg/kg/injection, schedule: Q01DX009 (ip), vehicle: Klucel (hydroxypropylcellulose) (HPC) 103 % of control | dose: 25.0 mg/kg/injection, schedule: Q04DX003 (ip), vehicle: Klucel (hydroxypropylcellulose) (HPC) 101 % of control | [8] 103 % of control | dose: 50.0 mg/kg/injection, schedule: Q04DX003 (ip), vehicle: Klucel (hydroxypropylcellulose) (HPC) 94 % of control | [9] 119 % of control | dose: 100.0 mg/kg/injection, schedule: Q04DX003 (ip), vehicle: Klucel (hydroxypropylcellulose) (HPC) 97 % of control

CC(=O)Nc1cc(NC(C)=O)c2nc(CN(C)c3ccc(C(=O)O)cc3)cnc2n1
inactive: dose: 100.0 mg/kg/injection, schedule: Q01DX001 (ip), vehicle: other 101 % of control | dose: 200.0 mg/kg/injection, schedule: Q01DX001 (ip), vehicle: other 98 % of control | dose: 400.0 mg/kg/injection, schedule: Q01DX001 (ip), vehicle: other 97 % of control

OC(CN1CC1)c1ccccc1 (stereo not drawn)
inactive: dose: 20.0 mg/kg/injection, schedule: Q01DX009 (ip), vehicle: Klucel (hydroxypropylcellulose) (HPC) 95 % of control | dose: 20.0 mg/kg/injection, schedule: Q04DX003 (ip), vehicle: Klucel (hydroxypropylcellulose) (HPC) 97 % of control | dose: 40.0 mg/kg/injection, schedule: Q01DX009 (ip), vehicle: Klucel (hydroxypropylcellulose) (HPC) 95 % of control | dose: 40.0 mg/kg/injection, schedule: Q04DX003 (ip), vehicle: Klucel (hydroxypropylcellulose) (HPC) 102 % of control | dose: 80.0 mg/kg/injection, schedule: Q04DX003 (ip), vehicle: Klucel (hydroxypropylcellulose) (HPC) 97 % of control

COc1ccc([N+](=O)[O-])cc1NC(=O)Nc1ccc(CCO)cc1
inactive: [8] 92 % of control | [9] 105 % of control | dose: 200.0 mg/kg/injection, schedule: Q01DX009 (ip), vehicle: Klucel (hydroxypropylcellulose) (HPC) 97 % of control

CCC/C(C)=N\O
inactive: [10] 102 % of control | [11] 111 % of control | [12] 100 % of control

CCCCCCC(C)O[Si](C)c1ccc(-c2ccccc2)cc1 (stereo not drawn)
inactive: dose: 100.0 mg/kg/injection, schedule: Q01DX009 (ip), vehicle: saline with Tween-80 100 % of control | [10] 93 % of control | dose: 200.0 mg/kg/injection, schedule: Q01DX009 (ip), vehicle: saline with Tween-80 105 % of control | [11] 94 % of control | dose: 400.0 mg/kg/injection, schedule: Q01DX009 (ip), vehicle: saline with Tween-80 102 % of control | [12] 100 % of control

O=C(O)Cc1n[nH]c(=O)c2ccccc12
inactive: [1] 93 % of control | [2] 99 % of control | [3] 102 % of control
